Measured values taken from patent US9789110B2, “Diacylglycerol acyltransferase 2 inhibitors” (PFIZER INC., priority 2014, dated 2017).
Where two headings read alike, the source gives them in different places.

Experiments:
hDGAT2 = hDGAT2 (Homo sapiens (Human), UniProt Q96PD7); experiment: In vitro DGAT2 assay, hDGAT2 membrane fraction, [14C]decanoyl-CoA scintillation readout; format: biochemical; conditions: geometric mean; FLAG-hDGAT2 membrane fraction; 2 h preincubation; read-out: IC50 for inhibition of DGAT2
hDGAT2, sequence (Q96PD7 whole entry): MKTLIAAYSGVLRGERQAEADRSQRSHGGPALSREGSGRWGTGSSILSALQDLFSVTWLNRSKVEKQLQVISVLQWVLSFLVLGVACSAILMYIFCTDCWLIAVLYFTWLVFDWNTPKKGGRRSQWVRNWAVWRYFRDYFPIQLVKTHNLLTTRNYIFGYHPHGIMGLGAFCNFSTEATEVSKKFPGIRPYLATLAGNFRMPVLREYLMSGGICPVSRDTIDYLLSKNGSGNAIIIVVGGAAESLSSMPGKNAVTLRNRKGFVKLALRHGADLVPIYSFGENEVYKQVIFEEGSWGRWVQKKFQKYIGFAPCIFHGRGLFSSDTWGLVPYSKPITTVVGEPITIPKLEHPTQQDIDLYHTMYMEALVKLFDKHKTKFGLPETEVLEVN
Description: Recombinant baculovirus for the FLAG-tagged hDGAT2 was generated in SF9 insect cells using Bac-to-Bac baculovirus expression system (Invitrogen) according to the manufacturer's protocol. For the expression of hDGAT2, SF9 cells (20 L) grown in Sf90011 media were infected with hDGAT2 baculovirus at a multiplicity of infection of 1 in a Wave Bioreactor System 20/50P wave bag (GE Healthcare). After 40 hours of infection, the cells were then harvested by centrifugation at 5,000×g. The cell pellets were washed by resuspending in phosphate buffered saline (PBS) and collected by centrifugation at 5,000×g. The cell paste was flash frozen in liquid N2 and stored at −80° C. until needed. All operations below were at 4° C. unless otherwise noted. The cells were resuspended in lysis buffer (50 mM Tris-HCl, pH 8.0, 250 mM sucrose) including 1 mM ethylenediaminetetraacetic acid (EDTA) and the complete protease inhibitor cocktail (Roche Diagnostics) at a ratio of 3 ml buffer per 1 g cell paste. The cells were lysed by dounce homogenizer. The cell debris was removed by centrifugation at 1,000×g for 20 min, and the supernatant was centrifuged at 100,000×g for 1 hour. The resulting pellet was rinsed three times by filling ultracentrifuge tubes to the top with ice cold PBS before decanting. The washed pellet was resuspended with gentle stirring for 1 hour in lysis buffer containing 8 mM 3-[(3-cholamidopropyl)dimethylammonio]-1-propanesulfonate (CHAPS) at a ratio of 1 mL buffer per 1 g of original cell paste and centrifuged again at 100,000×g for 1 hour. The resulting supernatant was aliquotted, flash frozen in liquid N2, and stored at −80° C. until use.
For determination of IC50 values, the reactions were carried out in 384-well white Polyplates (Perkin Elmer) in a total volume of 20 μL. To […] compounds dissolved in 100% DMSO and spotted at the bottom of each well, 5 μL of 0.04% bovine serum albumin (BSA) (fatty acid free, Sigma Aldrich) was added and the mixture was incubated at room temperature for 20 minutes. To this mixture, 10 μL of hDGAT2 membrane fraction (0.01 mg/mL) diluted in 100 mM Hepes-NaOH, pH 7.4, 20 mM MgCl2 containing 200 nM methyl arachidonyl fluorophosphonate (Cayman Chemical; dried from ethyl acetate stock solution under argon gas and dissolved in DMSO as 5 mM stock) was added. After this mixture was preincubated at room temperature for 2 hours, DGAT2 reactions were initiated by the addition of 4 μL of substrates containing 30 μM [1-^14C]decanoyl-CoA (custom-synthesized by Perkin Elmer, 50 mCi/mmol) and 125 μM 1,2-didecanoyl-sn-glycerol (Avanti Polar Lipids) dissolved in 12.5% acetone. The reaction mixtures were incubated at room temperature for 40 min and the reactions were stopped by addition of 5 μL of 1% H3PO4. After the addition of 45 μL MicroScint-E (Perkin-Elmer), plates were sealed with Top Seal-A covers (Perkin-Elmer) and phase partitioning of substrates and products was achieved using a HT-91100 microplate orbital shaker (Big Bear Automation, Santa Clara, Calif.). Plates were centrifuged at 2,000×g for 1 min in an Allegra 6R Centrifuge (Beckman Coulter) and then were sealed again with fresh covers before reading in a 1450 Microbeta Wallac Trilux Scintillation Counter (Perkin Elmer). DGAT2 activity was measured by quantifying the generated product [^14C]tridecanoylglycerol in the upper organic phase.
Inhibitors were tested at eleven different concentrations to generate IC50 values for each compound.

[1] = target: DGAT2 in primary human hepatocytes (Homo sapiens (Human), UniProt Q96PD7); experiment: IC50 for DGAT2 inhibitors in human hepatocytes, [14C]-glycerol incorporation into lipids; format: cell-based
DGAT2 in primary human hepatocytes, sequence (Q96PD7 whole entry): as above
Description: For evaluation of the effects of DGAT2 inhibitors in a cell-based setting, cryopreserved human hepatocytes (Lot QOC and NON, Celsis, Chicago, Ill.) were thawed and plated onto type I collagen-coated plates according to the manufacturer's instructions. After 24 hours overnight recovery period, the cells were overlayed with media containing 250 μg/ml Matrigel (BD Biosciences, San Jose, Calif.). The following day, media was aspirated and replaced with serum-free Williams Media E (Life Technologies, Grand Island, N.Y.) containing 400 μM sodium dodecanoate (Sigma-Aldrich, St. Louis, Mo.). Forty minutes later, DGAT2 inhibitors (prepared as 100× stocks in 25% DMSO, 75% Williams' Media E) were added to the desired final concentration. […] After a 20 minute preincubation, 0.2 μCi [1,3-^14C]-glycerol glycerol (American Radio Chemicals, St. Louis, Mo.) was added to each well and mixed by gentle pipetting prior to a 3 hour incubation. At this point, media was aspirated and the cells were lysed in isopropyl alcohol: tetrahydrofuran (9:1) prior to centrifugation at 3000 rpm for 5 minutes. Radiolabeled lipids were resolved using a 2-solvent system by thin layer chromatography using standard technique (solvent 1 contained ethyl acetate:isopropyl alcohol:chloroform:methanol:0.25% potassium chloride in water (100:100:100:40.2:36.1, v/v/v/v) and solvent 2 contained hexane: diethyl ether: acetic acid (70:27:3, v/v/v)). After separation, radiolabeled lipids were visualized using a Molecular Dynamics' PhosphorImager system. The half maximal inhibitory concentrations (IC50 values) were determined using GraphPad Prism (GraphPad Software, Inc., La Jolla, Calif.).
Table 4 below provides IC50 values for the Examples in accordance with the above-described assay. Results were reported as average IC50 values, low and high IC50 range (95% confidence interval).

[2] = average, cryopreserved human hepatocytes, selective DGAT1 inhibitor 3 μM in all wells, 3 hour incubation, read-out: IC50 in primary human hepatocytes

Row | SMILES | IC50 (hDGAT2) [nM] | IC50 [1, 2] [nM] | IC50 [1] [nM]
1 | CCOc1ccccc1O[C@@H]1CCCN(c2ncc(C(=O)NCc3cc(C(=O)O)ccc3F)cn2)C1 [Example 10, (R)-3-((2-(3-(2-ethoxyphenoxy)piperidin-1-yl)pyrimidine-5-carboxamido)methyl)-4-fluorobenzoic acid] | 87.3 | 10.4 | 
2 | CCOc1ccccc1O[C@@H]1CCCN(c2ncc(C(=O)NCc3cc(C(=O)O)ccc3OC)cn2)C1 [Example 11, (R)-3-((2-(3-(2-ethoxyphenoxy)piperidin-1-yl)pyrimidine-5-carboxamido)methyl)-4-methoxybenzoic acid] | 122 | 6.8 | 
3 | CCOc1ccccc1O[C@@H]1CCCN(c2ncc(C(=O)NCc3cc(C(=O)O)cnc3C)cn2)C1 [Example 12, (R)-5-((2-(3-(2-ethoxyphenoxy)piperidin-1-yl)pyrimidine-5-carboxamido)methyl)-6-methylnicotinic acid] | 62.3 | 67.5 | 
4 | CCOc1ccccc1O[C@@H]1CCCN(c2ncc(C(=O)NCc3ccc(C(=O)O)cc3C)cn2)C1 [Example 13, (R)-4-((2-(3-(2-ethoxyphenoxy)piperidin-1-yl)pyrimidine-5-carboxamido)methyl)-3-methylbenzoic acid] | 45.2 | 20.7 | 
5 | CCOc1ccccc1O[C@@H]1CCCN(c2ncc(C(=O)NCc3cc(C)cc(C(=O)O)c3)cn2)C1 [Example 16, (R)-3-((2-(3-(2-ethoxyphenoxy)piperidin-1-yl)pyrimidine-5-carboxamido)methyl)-5-methylbenzoic acid] | 47.7 | 45 | 
6 | CCNC(=O)c1cnc(N2CCC[C@@H](Oc3ccc(C#N)cc3OCC)C2)nc1 [Example 17, (R)-2-(3-(4-cyano-2-ethoxyphenoxy)piperidin-1-yl)-N-ethylpyrimidine-5-carboxamide] | 182 | 19.8 | 
7 | CCOc1ccccc1O[C@@H]1CCCN(c2ncc(C(=O)NCc3cc(O)no3)cn2)C1 [Example 19.2, (R)-2-(3-(2-ethoxyphenoxy)piperidin-1-yl)-N-((3-hydroxyisoxazol-5-yl)methyl)pyrimidine-5-carboxamide] | 262 |  | 341

Now from value to compound, other results behind:

Row | IC50 (hDGAT2) [nM] | IC50 [1, 2] [nM] | SMILES | IC50 [1] [nM]
8 | 165 | 116 | CCOc1ccccc1O[C@@H]1CCCN(c2ncc(C(=O)NCc3ccc(C(=O)O)cc3)cn2)C1 [Example 18.1, (R)-4-((2-(3-(2-ethoxyphenoxy)piperidin-1-yl)pyrimidine-5-carboxamido)methyl)benzoic acid] | 
9 | 156 | 45.7 | CCOc1ccccc1O[C@@H]1CCCN(c2ncc(C(=O)NCc3cccc(CC(=O)O)c3)cn2)C1 [Example 18.2, (R)-2-(3-((2-(3-(2-ethoxyphenoxy)piperidin-1-yl)pyrimidine-5-carboxamido)methyl)phenyl)acetic acid] | 
10 | 182 | 499 | CCOc1ccccc1O[C@@H]1CCCN(c2ncc(C(=O)NCc3ccccc3CC(=O)O)cn2)C1 [Example 18.3, (R)-2-(2-((2-(3-(2-ethoxyphenoxy)piperidin-1-yl)pyrimidine-5-carboxamido)methyl)phenyl)acetic acid] | 
11 | 68 | 81.6 | CCOc1ccccc1O[C@@H]1CCCN(c2ncc(C(=O)NCc3nc(=O)[nH][nH]3)cn2)C1 [Example 20.5, (R)-2-(3-(2-ethoxyphenoxy)piperidin-1-yl)-N-((5-oxo-2,5-dihydro-1H-1,2,4-triazol-3-yl)methyl)pyrimidine-5-carboxamide] | 
12 | 29.3 | 37.8 | CCOc1ccccc1O[C@@H]1CCCN(c2ncc(C(=O)NCCc3cn[nH]c3O)cn2)C1 [Example 20.8, (R)-2-(3-(2-ethoxyphenoxy)piperidin-1-yl)-N-(2-(5-hydroxy-1H-pyrazol-4-yl)ethyl)pyrimidine-5-carboxamide] | 
13 | 170 | 59.8 | CCOc1ccccc1O[C@@H]1CCCN(c2ncc(C(=O)N3CC[C@H]3C(N)=O)cn2)C1 [Example 20.10, (S)-1-(2-((R)-3-(2-ethoxyphenoxy)piperidin-1-yl)pyrimidine-5-carbonyl)azetidine-2-carboxamide] | 
